Laboratory results taken from ChEMBL document CHEMBL1201862, “PubChem BioAssay data set” (2004).
The source made the active and inactive calls.

Assays:
[1] = HEK-293T viability loss after treatment – luminescence, T-cell screen hits, cytotoxicity control for TCR NF-kB inhibitor project, dose response (AID 489026); format: functional, cell-based;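 also: cells exposed to compound about 14 hours before the viability readout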
[2] = tested on: BJ; test: BJ-TERT fibroblast viability loss – cell-based, RAS-independent, luminescence, dose response (AID 1933); format: functional; conditions: Homo sapiens
[3] = tested on: BJ; test: cells; format: functional, cell-based; conditions: Homo sapiens
[4] = tested on: BJ; test: BJ-TERT-LT-ST fibroblast viability loss – cell-based, RAS-independent, luminescence, dose response (AID 1935); format: functional; conditions: Homo sapiens;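 also: BJ fibroblasts immortalized with TERT plus LT and ST oncogenes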
[5] = DRD fibroblast viability loss – cell-based, non-viral oncogenic, luminescence, dose response (AID 1934); format: functional; conditions: Homo sapiens
[6] = target: Dual specificity tyrosine-phosphorylation-regulated kinase 1A (Rattus norvegicus, UniProt Q63470); format: biochemical, Homo sapiens
[7] = target: Cytochrome P450 2C19 (Homo sapiens, UniProt P33261); test: Cytochrome panel assay with activity outcomes. Panel member name: p450-cyp2c19 Compounds with AC50 equal or less than 10 uM are considered active; format: functional; conditions: read-out: AC50
[8] = target: Cytochrome P450 3A4 (Homo sapiens, UniProt P08684);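 also: CYP3A4 tested as one member of a cytochrome P450 panel screen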
[9] = target: Cytochrome P450 2C9 (Homo sapiens, UniProt P11712)
[10] = target: T1, Sentrin-specific protease 8 (Homo sapiens, UniProt Q96LD8); format: functional
T1 sequence (Q96LD8 whole entry): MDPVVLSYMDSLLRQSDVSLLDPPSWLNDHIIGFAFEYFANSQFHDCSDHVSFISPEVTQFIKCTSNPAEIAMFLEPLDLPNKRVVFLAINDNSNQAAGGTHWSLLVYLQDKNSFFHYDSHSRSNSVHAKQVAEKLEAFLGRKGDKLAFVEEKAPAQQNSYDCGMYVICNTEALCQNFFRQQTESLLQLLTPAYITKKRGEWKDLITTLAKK

[11] = target: T1, Sentrin-specific protease 8; format: functional; remark: listed apart in the source
[12] = tested on: P388/ADR; test: cells; format: functional; conditions: Mus musculus
[13] = tested on: SN12K1; test: cells; format: functional; conditions: Homo sapiens
[14] = tested on: P388; test: cells; format: functional; conditions: Mus musculus

Chain of Cytochrome P450 2C19 (P33261 whole entry): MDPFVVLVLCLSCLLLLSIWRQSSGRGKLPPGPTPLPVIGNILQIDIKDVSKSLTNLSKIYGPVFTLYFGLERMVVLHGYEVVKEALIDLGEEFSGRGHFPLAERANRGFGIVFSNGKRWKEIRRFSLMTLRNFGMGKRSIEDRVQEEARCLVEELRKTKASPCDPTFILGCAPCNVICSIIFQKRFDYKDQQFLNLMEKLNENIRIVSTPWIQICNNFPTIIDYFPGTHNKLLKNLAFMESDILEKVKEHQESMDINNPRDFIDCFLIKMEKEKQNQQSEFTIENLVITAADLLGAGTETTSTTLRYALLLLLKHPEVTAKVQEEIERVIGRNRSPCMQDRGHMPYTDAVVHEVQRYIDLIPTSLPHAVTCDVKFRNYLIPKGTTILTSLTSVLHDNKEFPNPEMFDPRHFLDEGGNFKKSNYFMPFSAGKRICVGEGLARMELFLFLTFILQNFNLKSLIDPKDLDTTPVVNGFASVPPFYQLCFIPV
Chain of Cytochrome P450 2C9 (P11712 whole entry): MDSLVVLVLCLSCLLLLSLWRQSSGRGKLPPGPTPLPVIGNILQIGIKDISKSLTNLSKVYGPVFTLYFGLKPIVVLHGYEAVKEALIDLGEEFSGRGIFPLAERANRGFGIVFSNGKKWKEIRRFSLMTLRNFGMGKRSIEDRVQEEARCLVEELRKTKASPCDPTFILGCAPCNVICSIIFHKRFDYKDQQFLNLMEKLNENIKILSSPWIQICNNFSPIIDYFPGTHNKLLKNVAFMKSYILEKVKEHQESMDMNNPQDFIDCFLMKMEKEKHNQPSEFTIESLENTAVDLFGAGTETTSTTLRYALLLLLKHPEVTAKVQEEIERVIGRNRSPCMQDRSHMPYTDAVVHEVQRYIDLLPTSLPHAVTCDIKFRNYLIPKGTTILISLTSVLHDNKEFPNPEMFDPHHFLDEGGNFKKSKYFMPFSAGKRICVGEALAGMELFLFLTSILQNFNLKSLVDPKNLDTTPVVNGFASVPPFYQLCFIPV
Chain of Cytochrome P450 3A4 (P08684 whole entry): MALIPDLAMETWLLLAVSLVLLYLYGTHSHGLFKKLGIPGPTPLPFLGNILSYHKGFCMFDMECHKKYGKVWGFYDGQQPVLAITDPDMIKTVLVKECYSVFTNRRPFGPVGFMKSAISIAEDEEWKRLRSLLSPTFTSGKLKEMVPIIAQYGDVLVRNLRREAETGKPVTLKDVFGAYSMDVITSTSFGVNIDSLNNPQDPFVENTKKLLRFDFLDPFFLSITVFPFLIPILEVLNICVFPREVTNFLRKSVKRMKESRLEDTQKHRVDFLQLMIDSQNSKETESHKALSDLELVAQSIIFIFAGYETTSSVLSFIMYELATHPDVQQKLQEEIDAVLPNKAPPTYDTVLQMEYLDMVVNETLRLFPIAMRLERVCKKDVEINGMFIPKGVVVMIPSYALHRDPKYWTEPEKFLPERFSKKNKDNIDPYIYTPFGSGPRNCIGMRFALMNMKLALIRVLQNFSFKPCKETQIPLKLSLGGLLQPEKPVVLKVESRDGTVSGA

In the case of `Cc1ccccc1NS(=O)(=O)c1ccc(N2CCCC2=O)cc1`, the IC50 [1] was > 80 µM (inactive).

For `COc1ccc(Cl)cc1NC(=O)CN(C)CC(=O)Nc1ccccc1N1CCOCC1`, the EC50 [2] was 3.04 µM (active), the EC50 [3] was 37.1 µM (active) and the EC50 [4] was 30.7 µM (active). For the same molecule, the EC50 [5] was 2.55 µM (active) and the IC50 [1] was 70.8 µM (inactive).

In the case of `COc1ccc(NC(=O)/C(C#N)=C\c2ccc(-c3cccc(C(=O)O)c3C)o2)cc1`, the AC50 [6] was 1.7 µM (active).

With `O=S(=O)(O)c1cccc(N=Nc2c(O)ccc3ccccc23)c1` the AC50 [6] was 5.88 µM (active).

With `Cc1nc(NC(N)=Nc2ccccc2)nc2ccccc12` the AC50 [7] was 39.8 µM (inconclusive), the AC50 [8] was 39.8 µM (inconclusive) and the AC50 [9] was “inconclusive”.

In the case of `Cc1nc2c(ccc3nsnc32)[nH]1`, the AC50 [6] was 5.91 µM (active).

In the case of `COC(=O)c1ccc(C)cc1C1CN=NC12Cc1cc(C)ccc1C2=O` (stereo unspecified), the IC50 [10] was 20.9 µM (active) and the IC50 [11] was 13.9 µM (active).

With `COc1ccccc1/C=C1\CCC(CN(C)C)C1=O` (stereo unspecified) the GI50 [12] was 0.568 µM (active), the GI50 [13] was 2.05 µM (inactive) and the GI50 [14] was 608 nM (active).

In the case of `C#CCn1c(=O)c(C#N)c(O)c2cc3ccccc3nc21`, the GI50 [12] was > 100 µM (inactive), the GI50 [13] was > 100 µM (inactive) and the GI50 [14] was > 100000 nM (inactive).

For `O=C1NC(c2cccc3ccccc23)Nc2ccc(O)cc21` (stereo unspecified), the GI50 [12] was 24.8 µM (inactive), the GI50 [13] was 36.7 µM (inactive) and the GI50 [14] was 19000 nM (inactive).

With `COc1cccc2c1C(=O)c1c(O)c3c(c(O)c1C2=O)C[C@@](O)(C(C)=O)C[C@@H]3OC1CC(N(Cc2ccccc2)Cc2ccccc2)C(O)C(C)O1` (stereo partly specified) the GI50 [12] was 1.57 µM (inactive), the GI50 [13] was 2.92 µM (inactive) and the GI50 [14] was 675 nM (active).

In the case of `Cc1ccc(/C=N/NC(=O)c2c(C)nc3ccc(Br)cn23)cc1`, the IC50 [1] was > 80 µM (inactive).

In the case of `CCCCC(NC(=O)CC)C(=O)O` (stereo unspecified), the GI50 [12] was > 100 µM (inactive), the GI50 [13] was > 100 µM (inactive) and the GI50 [14] was > 100000 nM (inactive).

With `COC(=O)C1OC(Oc2cc(O)c3c(=O)cc(-c4ccc(O)cc4)oc3c2)C(O)C(O)C1O` (stereo unspecified) the GI50 [12] was > 35.5 µM (inactive) and the GI50 [13] was > 100 µM (inactive).

For `COc1ccc(-c2csc(N=C(N)N)n2)cc1`, the AC50 [6] was 0.541 µM (active).

With `CCCCC1=C(Br)C(=C(Br)Br)OC1=O` the GI50 [12] was 0.443 µM (active), the GI50 [13] was 1.96 µM (inactive) and the GI50 [14] was 505 nM (active).

For `C[C@H]1C/C=C/[C@H]2[C@@H]3O[C@]3(C)[C@@H](C)[C@H]3[C@H](Cc4ccccc4)NC(=O)[C@]32OC(=O)O/C=C/[C@@](C)(O)C1=O` [CYTOCHALASIN E], the GI50 [13] was < 0.01 µM (active) and the GI50 [14] was 16.6 nM (active).

For `Cc1c2cc[n+](C)cc2c(C)c2c1[nH]c1ccc(O)cc12` [ELLIPTINIUM ACETATE], the GI50 [12] was 1.92 µM (inactive), the GI50 [13] was 2.98 µM (inactive) and the GI50 [14] was 131 nM (active).
